{
  "source": "patent US8710064B2",
  "about": "“2-aryl-4-quinazolinones and their pharmaceutical compositions” (China Medical University, priority 2011, dated 2014)",
  "tested_on": "C6 glioma cells",
  "test": "G1 synchronized by Ara-C, flow cytometry",
  "format": "cell-based, rat",
  "conditions": "60 nM MJ-66 after 41.6 nM Ara-C 12 hours; at 12th and 24th hours",
  "method": "At indicated time points (0, 6, 12 and 24 hr), >10^6 cells were collected and fixed in 70% ethanol over 1 hour at −20° C. After staining with PI as described, DNA content of ten thousand cells was analyzed by flow cytometry.\nTo investigate the influence of MJ-66 on normal glia such as human glia cell line SVGP12 and rat primary glia cells, cells were treated with different concentrations of MJ-66 in vitro (0.00625, 0.0125, 0.025, 0.05, 0.1 and 1 μM) for different time durations (0, 6, 12 and 24 hours) and the cell viability was assessed by MTS assay. Cells alone or treated with DMSO were used as control. […] However, most glia cells in animals are static and their proliferation rate is almost silent. Therefore, cytosine arabinoside (Ara-C), a DNA synthesis inhibitor, was further used to inhibit glioma cell proliferation and glioma cells were then treated with MJ-66 or DMSO as described in “General materials and methods”. Specifically, after C6 glioma cells were treated with 41.6 nM Ara-C for 12 hours, and then treated with solvent (DMSO) or 60 nM MJ-66 for 0, 6, 12 and 24 hours, the cell cycle distributions and DNA content of the cells were monitored by flow cytometry with propidium iodide staining C6 glioma cells treated with 41.6 nM Ara-C for 12 hours (12 hr) were detected by flow cytometry with propidium iodide staining as control.",
  "data": [
    {"smiles": "O=c1[nH]c(-c2cccc3ccccc23)nc2ccc(N3CCCC3)cc12", "note": "[Compound 23, 6-(Pyrrolidin-1-yl)-2-(naphthalen-1-yl)quinazolin-4-one]", "values": [
      {"measurement": "cell death of G1 arrest (Ara-C-treated) glioma cells", "result": "not induced cell death"}
    ]}
  ]
}
